Data as given in PMC5408701, “Isomaltooligosaccharide-binding structure of Paenibacillus sp. 598K cycloisomaltooligosaccharide glucanotransferase” (Bioscience Reports, 2017).

Target: T1, PsCITase (core domain) (Paenibacillus sp. 598K, UniProt G9MBW2)
T1 construct: gene cit; core domain 41-739 (N-terminal 40 and C-terminal 235 residues, incl. CBM35-2, removed), N-terminal pET15b His tag (numbered Met21-Met40), E. coli BL21(DE3); full length 972 residues
Assay: X-ray crystallography, crystal soaked with […] CI-7, […] A
Type: binding

T1 sequence (G9MBW2 entry or part of it): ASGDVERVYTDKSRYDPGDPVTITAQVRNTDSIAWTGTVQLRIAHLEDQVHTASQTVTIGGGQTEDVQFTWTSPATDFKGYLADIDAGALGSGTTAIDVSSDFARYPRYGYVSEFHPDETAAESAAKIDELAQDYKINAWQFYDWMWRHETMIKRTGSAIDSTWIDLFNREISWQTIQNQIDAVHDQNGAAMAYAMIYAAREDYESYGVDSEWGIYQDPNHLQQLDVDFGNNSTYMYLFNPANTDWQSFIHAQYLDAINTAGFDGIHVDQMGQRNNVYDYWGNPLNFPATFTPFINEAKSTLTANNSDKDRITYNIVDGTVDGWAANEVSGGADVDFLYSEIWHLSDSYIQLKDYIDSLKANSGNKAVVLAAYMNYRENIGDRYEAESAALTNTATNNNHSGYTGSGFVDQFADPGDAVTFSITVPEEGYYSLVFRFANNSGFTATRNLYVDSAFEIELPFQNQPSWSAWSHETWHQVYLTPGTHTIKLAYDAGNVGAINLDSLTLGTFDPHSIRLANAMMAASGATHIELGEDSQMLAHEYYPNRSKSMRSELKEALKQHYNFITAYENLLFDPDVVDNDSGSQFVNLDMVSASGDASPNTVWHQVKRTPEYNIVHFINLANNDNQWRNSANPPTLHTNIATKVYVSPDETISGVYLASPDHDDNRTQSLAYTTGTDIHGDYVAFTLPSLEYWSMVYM

Q: `O[C@@H]1[C@@H](O)[C@H]2OC[C@H]3O[C@H](OC[C@H]4O[C@H](OC[C@H]5O[C@H](OC[C@H]6O[C@H](OC[C@H]7O[C@H](OC[C@H]8O[C@H](OC[C@@H](O2)[C@H]1O)[C@H](O)[C@@H](O)[C@@H]8O)[C@H](O)[C@@H](O)[C@@H]7O)[C@H](O)[C@@H](O)[C@@H]6O)[C@H](O)[C@@H](O)[C@@H]5O)[C@H](O)[C@@H](O)[C@@H]4O)[C@H](O)[C@@H](O)[C@@H]3O` [CI-7, cycloisomaltoheptaose] was tested. Which “X-ray crystallography, crystal soaked with 5% CI-7, 2.60 A” value (variable loop (canonical) site of PsCBM35-1, Trp507, on crystallographic two-fold axis, averaged density, soaked CI-7 is hydrolysed at the catalytic site) did it give?
A: The bound sugar appeared to be soaked CI-7 with the cyclic sugar chain structure

Q: Which “X-ray crystallography, crystal soaked with 5% CI-7, 2.60 A” value (catalytic cleft, subsites -7 to -1, hydrolysis product of soaked CI-7, Glc-1 density ambiguous) does the source give for `OC[C@H]1O[C@H](OC[C@H]2O[C@H](OC[C@H]3O[C@H](OC[C@H]4O[C@H](OC[C@H]5O[C@H](OC[C@H]6O[C@H](OC[C@H]7OC(O)[C@H](O)[C@@H](O)[C@@H]7O)[C@H](O)[C@@H](O)[C@@H]6O)[C@H](O)[C@@H](O)[C@@H]5O)[C@H](O)[C@@H](O)[C@@H]4O)[C@H](O)[C@@H](O)[C@@H]3O)[C@H](O)[C@@H](O)[C@@H]2O)[C@H](O)[C@@H](O)[C@@H]1O` (some centres unmarked) [IG-7, isomaltoheptaose] here?
A: the bound CI-7 was observed as the cleaved linear form like isomaltoheptaose (IG-7)
